Measured values published in patent publication US8084046B2 (priority 2001, dated 2011).
“And” between values parts separate entries of the source, which are not always exact repeats. Equal entries are not always repeated. Where two headings read alike, the source gives them in different places.

Key:
Type in all cases: cell-based
S. aureus (MN8) [1] = conditions: 24 h
S. aureus (MN8) [2] = test system: S. aureus (MN8)
S. aureus MN8 [3] = test system: S. aureus MN8; parameters: ngTSST-1 per CFU: scale not given here; conditions: for % Reduction / ngTSST-1 per CFU: terpineol 0%
S. aureus MN8 [4] = test system: S. aureus MN8

## CC(C)=CCC/C(C)=C/CO [Geraniol]
S. aureus (MN8) [1]
  ng TSST-1 per OD Unit: 26

## C=CC(C)(O)CCC=C(C)C (stereo not shown) [Linalool]
S. aureus (MN8) [1]
  ng TSST-1 per OD Unit: 421

## CC1CCC(C(C)C)C(O)C1 (stereo not shown) [Menthol]
S. aureus (MN8) [2]
  effect on the growth of S. aureus cells: minimal, if any, effect on the growth of S. aureus cells
S. aureus (MN8) [1]
  ng TSST-1 per OD Unit: 33

## CC1(O)CCC(C(C)(C)O)CC1 (stereo not shown) [p-menthane-1,8-diol]
S. aureus (MN8) [1]
  ng TSST-1 per OD Unit: 792

## myreth-3-myristate [Cetiol]
S. aureus MN8 [3]
  ng TSST-1 per mL: 1147 and 989 and 1556
S. aureus MN8 [3]; Cetiol 2.5 mM
  % Reduction: 0%
  ngTSST-1 per CFU: 371 ng per CFU
S. aureus MN8 [3]; Cetiol 5.0 mM
  % Reduction: 39%
  ngTSST-1 per CFU: 196 ng per CFU
S. aureus MN8 [3]; Cetiol 10.0 mM
  % Reduction: 37%
  ngTSST-1 per CFU: 200 ng per CFU
S. aureus MN8 [4]
  % CFU/mL × 10^6: 5.9 and 5.0 and 4.2
